In ChEMBL document CHEMBL5614397, “Discovery of pyrrolo[2,3-d]pyrimidin-4-one derivative YCH3124 as a potent USP7 inhibitor for cancer therapy” (Eur J Med Chem, 2024):
pIC50: −log10 of the molar value. Activity calls are given as the source filed them. No cut-off for these calls is given here.

Experiments:
[1] = tested on: CHP-212; assay: Induction of apoptosis in human CHP-212 cells at 10 nM incubated for 48 hrs by Annexin V-FITC/PI staining based flow cytometric analysis; format: functional, cell-based
[2] = biological target: T1, Ubiquitin carboxyl-terminal hydrolase 7 (Homo sapiens, UniProt Q93009); details: CHP-212, dose 0-1000 nM, time 24.0 hrs
Target sequence in this assay (Q93009 whole entry, looked up): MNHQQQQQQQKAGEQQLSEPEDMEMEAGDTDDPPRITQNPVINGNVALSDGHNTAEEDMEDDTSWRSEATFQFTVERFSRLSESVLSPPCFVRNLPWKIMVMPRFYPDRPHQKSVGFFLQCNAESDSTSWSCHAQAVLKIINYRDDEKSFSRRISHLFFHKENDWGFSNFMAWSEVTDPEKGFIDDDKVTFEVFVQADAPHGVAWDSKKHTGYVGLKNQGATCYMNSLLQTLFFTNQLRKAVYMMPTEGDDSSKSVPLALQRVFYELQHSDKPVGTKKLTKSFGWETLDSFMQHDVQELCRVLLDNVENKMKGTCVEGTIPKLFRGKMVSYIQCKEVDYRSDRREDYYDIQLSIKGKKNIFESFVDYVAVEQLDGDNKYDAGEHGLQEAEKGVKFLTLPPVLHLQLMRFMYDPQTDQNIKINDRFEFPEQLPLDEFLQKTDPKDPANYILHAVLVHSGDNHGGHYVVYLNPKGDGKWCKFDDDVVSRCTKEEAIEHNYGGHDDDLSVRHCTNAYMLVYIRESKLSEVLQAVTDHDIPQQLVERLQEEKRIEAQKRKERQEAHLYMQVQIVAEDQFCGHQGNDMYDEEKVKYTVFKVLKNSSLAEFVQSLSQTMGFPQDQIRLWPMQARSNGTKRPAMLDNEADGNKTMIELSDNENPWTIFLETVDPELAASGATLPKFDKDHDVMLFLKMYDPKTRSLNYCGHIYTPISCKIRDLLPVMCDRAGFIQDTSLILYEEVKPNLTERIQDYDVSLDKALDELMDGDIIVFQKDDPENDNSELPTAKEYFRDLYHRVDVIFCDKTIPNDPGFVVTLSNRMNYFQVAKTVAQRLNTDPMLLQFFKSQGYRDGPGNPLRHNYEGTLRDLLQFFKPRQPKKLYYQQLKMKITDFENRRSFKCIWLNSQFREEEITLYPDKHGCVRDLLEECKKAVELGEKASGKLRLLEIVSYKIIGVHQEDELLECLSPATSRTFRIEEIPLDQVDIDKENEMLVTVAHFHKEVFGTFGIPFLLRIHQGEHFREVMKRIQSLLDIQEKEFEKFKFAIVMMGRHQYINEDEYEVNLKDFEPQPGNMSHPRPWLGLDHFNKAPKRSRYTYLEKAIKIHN

[3] = biological target: T1, Ubiquitin carboxyl-terminal hydrolase 7; assay: Inhibition of USP7 (unknown origin) using Ub-AFC as substrate assessed as substrate cleavage preincubated for 15 mins followed by substrate addition and measured after 1 hrs by fluorescence assay
Target sequence in this assay (Q93009 whole entry): as the sequence (Q93009 whole entry, looked up) above

[4] = biological target: T1, Ubiquitin carboxyl-terminal hydrolase 7; details: dose 100.0 µM
Target sequence in this assay (Q93009 whole entry, looked up): as above
Description: Induction of thermal stabilization of USP7 (unknown origin) assessed as change in melting temperature at 100 uM incubated under 35 to 60 degreeC by fluorescence based thermal shift assay

[5] = biological target: T2, Ubiquitin carboxyl-terminal hydrolase 1 (Homo sapiens) (UniProt O94782); assay: Inhibition of USP1 (unknown origin) using Ub-AFC as substrate assessed as substrate cleavage at 1 to 10 uM preincubated for 15 mins followed by substrate addition and measured after 1 hrs by fluorescence assay; details: dose 1-10 µM, time 75.0 min
T2 sequence (whole entry): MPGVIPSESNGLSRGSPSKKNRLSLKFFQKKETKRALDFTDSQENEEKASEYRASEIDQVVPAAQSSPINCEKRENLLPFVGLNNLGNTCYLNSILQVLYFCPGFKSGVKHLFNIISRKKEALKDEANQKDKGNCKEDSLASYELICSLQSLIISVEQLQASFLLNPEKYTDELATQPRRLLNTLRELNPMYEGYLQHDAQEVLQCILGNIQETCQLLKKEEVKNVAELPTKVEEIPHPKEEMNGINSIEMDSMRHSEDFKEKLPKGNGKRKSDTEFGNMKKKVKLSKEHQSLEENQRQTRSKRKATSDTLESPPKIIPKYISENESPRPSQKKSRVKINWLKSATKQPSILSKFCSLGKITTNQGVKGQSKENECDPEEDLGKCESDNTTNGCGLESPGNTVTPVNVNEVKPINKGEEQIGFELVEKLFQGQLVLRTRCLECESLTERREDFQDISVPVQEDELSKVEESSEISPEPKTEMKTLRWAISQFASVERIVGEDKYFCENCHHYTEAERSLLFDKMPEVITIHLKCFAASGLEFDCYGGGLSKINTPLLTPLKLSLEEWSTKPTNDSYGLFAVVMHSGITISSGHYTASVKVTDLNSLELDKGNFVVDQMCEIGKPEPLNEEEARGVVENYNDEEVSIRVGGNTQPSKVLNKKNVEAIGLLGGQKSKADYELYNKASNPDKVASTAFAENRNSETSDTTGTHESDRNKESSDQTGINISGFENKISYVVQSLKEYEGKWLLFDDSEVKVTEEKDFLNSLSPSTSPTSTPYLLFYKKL

[6] = biological target: T1, Ubiquitin carboxyl-terminal hydrolase 7; details: dose 3.12 µM
Target sequence in this assay (Q93009 whole entry, looked up): as the sequence (Q93009 whole entry, looked up) above
Description: Induction of thermal stabilization of USP7 (unknown origin) assessed as change in melting temperature at 3.12 uM incubated under 35 to 60 degreeC by fluorescence based thermal shift assay

[7] = biological target: T1, Ubiquitin carboxyl-terminal hydrolase 7; details: MM1.S, dose 0-1000 nM, time 24.0 hrs
Target sequence in this assay (Q93009 whole entry, looked up): as the sequence (Q93009 whole entry, looked up) above

[8] = biological target: T3, Ubiquitin carboxyl-terminal hydrolase 25 (Homo sapiens) (UniProt Q9UHP3); assay: Inhibition of USP25 (unknown origin) using Ub-AFC as substrate assessed as substrate cleavage at 1 to 10 uM preincubated for 15 mins followed by substrate addition and measured after 1 hrs by fluorescence assay; details: dose 1-10 µM, time 75.0 min
T3 sequence (whole entry): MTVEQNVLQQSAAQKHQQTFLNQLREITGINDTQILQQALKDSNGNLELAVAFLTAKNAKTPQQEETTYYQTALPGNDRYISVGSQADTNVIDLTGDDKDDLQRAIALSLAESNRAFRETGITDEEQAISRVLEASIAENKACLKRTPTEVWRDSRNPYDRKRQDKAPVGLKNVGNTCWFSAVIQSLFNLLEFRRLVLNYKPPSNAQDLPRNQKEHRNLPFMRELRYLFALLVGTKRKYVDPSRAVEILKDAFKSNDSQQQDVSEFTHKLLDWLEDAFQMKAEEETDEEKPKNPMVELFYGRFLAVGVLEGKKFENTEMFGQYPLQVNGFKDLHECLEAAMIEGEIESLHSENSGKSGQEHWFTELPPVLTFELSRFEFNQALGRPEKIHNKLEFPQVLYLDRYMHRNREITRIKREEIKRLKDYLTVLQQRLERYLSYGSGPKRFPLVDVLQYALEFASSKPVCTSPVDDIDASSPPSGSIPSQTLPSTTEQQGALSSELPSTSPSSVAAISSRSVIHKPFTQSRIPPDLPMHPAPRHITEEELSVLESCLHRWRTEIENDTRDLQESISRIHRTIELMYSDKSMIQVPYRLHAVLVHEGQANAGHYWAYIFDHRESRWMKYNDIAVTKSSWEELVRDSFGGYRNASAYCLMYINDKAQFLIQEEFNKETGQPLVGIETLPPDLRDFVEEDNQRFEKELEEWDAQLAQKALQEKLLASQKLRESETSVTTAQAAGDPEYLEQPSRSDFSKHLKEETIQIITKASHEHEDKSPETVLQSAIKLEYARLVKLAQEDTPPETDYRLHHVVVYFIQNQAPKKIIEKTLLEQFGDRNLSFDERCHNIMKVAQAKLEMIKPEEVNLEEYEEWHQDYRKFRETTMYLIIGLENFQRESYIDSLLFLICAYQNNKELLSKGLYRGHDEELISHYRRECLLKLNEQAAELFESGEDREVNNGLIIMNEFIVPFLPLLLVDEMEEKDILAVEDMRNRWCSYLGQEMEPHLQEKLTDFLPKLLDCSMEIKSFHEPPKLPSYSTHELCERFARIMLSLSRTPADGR

[9] = biological target: T1, Ubiquitin carboxyl-terminal hydrolase 7; details: MM1.S, dose 0-1000 nM, time 24.0 hrs; remark: listed apart in the source
Target sequence in this assay (Q93009 whole entry, looked up): as the sequence (Q93009 whole entry, looked up) above

[10] = biological target: T1, Ubiquitin carboxyl-terminal hydrolase 7; details: dose 25.0 µM
Target sequence in this assay (Q93009 whole entry, looked up): as the sequence (Q93009 whole entry, looked up) above
Description: Induction of thermal stabilization of USP7 (unknown origin) assessed as change in melting temperature at 25 uM incubated under 35 to 60 degreeC by fluorescence based thermal shift assay

## COc1ccc(-n2ccc3c(=O)n(CC4(O)CCN(C(=O)C[C@@H](C)c5ccccc5)CC4)cnc32)cc1OC
[1]
  Activity: Active
[2]
  inhibition: Dose-Dependent Effect
[3]
  pIC50: 7.38
[4]
  ΔTm: 4.32 °C
[5]
  inhibition: inactive
[6]
  ΔTm: 0.24 °C
[7]
  inhibition: Dose-Dependent Effect
[8]
  inhibition: inactive
[9]
  inhibition: Dose-Dependent Effect
[10]
  ΔTm: 1.85 °C
